Data taken from patent publication US7135466B2 (Kirin Beer Kabushiki Kaisha, priority 1999, dated 2006).
Read-outs that look alike come from different tables or passages of the source.

Columns and labels:
[1] = molecular target: T1, PDGF-Ra (Homo sapiens, UniProt P16234); assay: Inhibitory activity against PDGF-Ra phosphorylation by PDGF-AA stimulation using G292; assay type: cell-based; conditions: for IC50: > means inhibition at indicated concentration not more than 50%, < and << not less than 50%, read-out: PDGF (E) IC50; for inhibition at 0.1 µM: G292, figure in parentheses in >100( ), read-out: PDGF (E) inhibition (%) at 100 nM
T1 construct: host or cells: G-292 human osteosarcoma cells
T1 sequence (P16234 24-1089): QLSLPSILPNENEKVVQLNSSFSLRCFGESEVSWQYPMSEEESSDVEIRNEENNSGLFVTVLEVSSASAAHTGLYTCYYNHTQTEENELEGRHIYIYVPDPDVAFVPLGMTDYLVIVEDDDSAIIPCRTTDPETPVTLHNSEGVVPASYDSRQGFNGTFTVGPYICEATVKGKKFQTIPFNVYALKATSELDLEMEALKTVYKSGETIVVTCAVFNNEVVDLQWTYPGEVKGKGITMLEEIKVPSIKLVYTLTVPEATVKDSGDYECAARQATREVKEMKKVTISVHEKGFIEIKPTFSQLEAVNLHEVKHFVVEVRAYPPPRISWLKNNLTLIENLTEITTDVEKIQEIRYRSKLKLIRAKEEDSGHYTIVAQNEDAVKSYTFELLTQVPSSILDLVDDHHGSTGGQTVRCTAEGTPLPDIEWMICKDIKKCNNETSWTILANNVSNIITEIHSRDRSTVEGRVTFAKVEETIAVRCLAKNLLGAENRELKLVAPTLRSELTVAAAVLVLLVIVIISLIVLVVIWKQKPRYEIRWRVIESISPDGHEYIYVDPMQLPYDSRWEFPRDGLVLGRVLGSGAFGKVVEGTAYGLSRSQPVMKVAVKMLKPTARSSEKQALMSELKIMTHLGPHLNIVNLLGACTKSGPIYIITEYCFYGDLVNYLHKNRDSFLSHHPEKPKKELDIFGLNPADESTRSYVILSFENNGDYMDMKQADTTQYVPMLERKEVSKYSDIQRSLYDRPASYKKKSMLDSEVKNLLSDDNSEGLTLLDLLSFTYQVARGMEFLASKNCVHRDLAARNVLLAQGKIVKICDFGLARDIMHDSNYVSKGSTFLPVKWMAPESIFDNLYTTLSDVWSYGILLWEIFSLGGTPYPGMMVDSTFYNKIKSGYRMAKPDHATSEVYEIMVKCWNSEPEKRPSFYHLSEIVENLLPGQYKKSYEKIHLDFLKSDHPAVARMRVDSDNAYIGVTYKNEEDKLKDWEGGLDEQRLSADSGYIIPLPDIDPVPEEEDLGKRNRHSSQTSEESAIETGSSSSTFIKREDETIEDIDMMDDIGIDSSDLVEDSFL
Method in brief: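 Phosphorylated PDGF-Ra was measured colorimetrically (450 nm) after tyrosine-phosphorylated proteins from G-292 lysates were bound to PY-20-coated wells and detected with anti-PDGF-Ra antibody. Compound preincubation lasted 1 hr, followed by 50 ng/ml PDGF-AA for 5 min.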

[2] = molecular target: T2, c-kit (Homo sapiens, UniProt P10721); assay: Inhibitory activity against c-kit autophosphorylation (MO7e cells, h-SCF); assay type: cell-based; conditions: for inhibition at 1 µM: Mo7e, at 1000 nM; for IC50: MO7e cells, read-out: c-kit IC50
T2 construct: MO7e (human megakaryocytic leukemia cell line) which had been arrested for 20 hr; endogenous in cells; host or cells: MO7e human megakaryocytic leukemia cell line
T2 sequence (P10721 26-976): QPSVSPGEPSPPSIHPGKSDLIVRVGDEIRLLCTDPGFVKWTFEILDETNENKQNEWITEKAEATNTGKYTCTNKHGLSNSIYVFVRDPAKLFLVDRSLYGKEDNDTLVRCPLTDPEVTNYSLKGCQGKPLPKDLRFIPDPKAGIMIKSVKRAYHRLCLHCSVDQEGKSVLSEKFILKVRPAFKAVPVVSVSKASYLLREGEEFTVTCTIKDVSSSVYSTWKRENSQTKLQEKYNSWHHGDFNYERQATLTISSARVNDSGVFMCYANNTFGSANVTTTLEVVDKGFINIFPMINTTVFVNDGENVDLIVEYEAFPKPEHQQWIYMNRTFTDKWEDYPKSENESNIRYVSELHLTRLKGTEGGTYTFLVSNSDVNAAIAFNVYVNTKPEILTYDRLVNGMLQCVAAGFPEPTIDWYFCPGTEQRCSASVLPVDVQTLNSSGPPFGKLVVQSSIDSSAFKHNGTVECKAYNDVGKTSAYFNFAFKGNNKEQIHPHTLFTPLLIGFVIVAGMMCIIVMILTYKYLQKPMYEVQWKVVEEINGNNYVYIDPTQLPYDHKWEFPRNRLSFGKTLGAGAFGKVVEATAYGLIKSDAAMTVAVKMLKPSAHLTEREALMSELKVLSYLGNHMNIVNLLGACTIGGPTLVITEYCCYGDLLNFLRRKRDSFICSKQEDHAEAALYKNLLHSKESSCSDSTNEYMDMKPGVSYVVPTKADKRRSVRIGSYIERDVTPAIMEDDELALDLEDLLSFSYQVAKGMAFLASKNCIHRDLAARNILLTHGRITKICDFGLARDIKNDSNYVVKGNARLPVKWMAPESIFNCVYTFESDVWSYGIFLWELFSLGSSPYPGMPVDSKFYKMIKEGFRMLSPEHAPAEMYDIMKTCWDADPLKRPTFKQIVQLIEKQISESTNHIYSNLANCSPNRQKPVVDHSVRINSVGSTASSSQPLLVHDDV
Method in brief: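 Phospho-c-kit ELISA: plate-bound PY-20 anti-phosphotyrosine captures lysate, anti-c-kit plus peroxidase-labelled secondary antibody detect, read at 450 nm. Lysates come from 20 hr-arrested MO7e cells given compound for 1 hr before a 5 min 50 ng/ml h-SCF stimulus.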

[3] = figure within parentheses in −( ) or >1000( )

Structure (SMILES) | IC50 ([1]; Pharmacological Test Example 1) [nM] | IC50 [1] [nM] | IC50 ([2]; h-SCF 50 ng/ml) [nM] | IC50 ([2]; 50 ng/ml h-SCF) [nM] | other results
COc1cc2nccc(Oc3cc(C)c(NC(=O)OC(C)c4cc(F)c(F)cc4F)cc3C)c2cc1OC (stereo not shown) [Example 94, 1-(2,4,5-Trifluorophenyl)ethyl N-{4-[(6,7-dimethoxy-4-quinolyl)oxy]-2,5-dimethylphenyl}carbamate] | 31 | – | – | – | inhibition at 1 µM ([2]; figure in parentheses in −( )): 31%
COc1cc2nccc(Oc3cc(C)c(NCCCOc4ccccc4)cc3C)c2cc1OC [Example 886, N-{4-[(6,7-Dimethoxy-4-quinolyl)oxy]-2 5-dimethylphenyl}-N-(3-phenoxypropyl)amine] | – | > 100 | – | – | inhibition at 0.1 µM ([1]; at 100 nM): 47%; inhibition at 1 µM ([2]; figure in parentheses in −( )): 27%
COc1cc2ncnc(Oc3ccc(NC(=O)OCCc4cccc(C(F)(F)F)c4)c(Cl)c3)c2cc1OC [Example 86] | 13 | – | 842 | – | –
COc1cc2ncnc(Oc3ccc(NC(=O)N[C@@H]4CCN(Cc5ccccc5)C4)c([N+](=O)[O-])c3)c2cc1OC [Example 577, N-[(3R)-1-Benzyltetrahydro-1H-3-pyrrolyl]-N′-{4-[(6,7-dimethoxy-4-quinazolinyl)oxy]-2-nitrophenyl}urea] | – | 14 | – | 328 | –
COc1cc2ncnc(Oc3ccc(NC(=S)NCCCN4CCCC4=O)cc3)c2cc1OC [Example 525, N-{4-[(6,7-Dimethoxy-4-quinazolinyl)oxy]phenyl}-N′-[3-(2-oxotetrahydro-1H-1-pyrrolyl)-propyl]thiourea] | – | 79 | – | – | inhibition at 1 µM [2, 3]: 41%
COc1cc2ncnc(Oc3ccc(N(C)C(=O)OCc4ccccc4Cl)c(Cl)c3)c2cc1OC [Example 480, 2-Chlorobenzyl N-{2-chloro-4-[(6,7-dimethoxy-4-quinazolinyl)oxy]phenyl}-N-methylcarbamate] | – | 10 | – | – | inhibition at 1 µM [2, 3]: 22%
COc1cc(Oc2ccnc3cc(OC)c(OC)cc23)ccc1NC(=O)NN1CCCCC1 [Example 598, N-{4-[(6,7-Dimethoxy-4-quinolyl)oxy]-2-methoxyphenyl}-N′-(1-piperidinyl)urea] | – | 19 | – | 423 | –
COc1cc2nccc(Oc3cc(C)c(NC(=O)OC(C)c4ccccc4Br)cc3C)c2cc1OC (stereo not shown) [Example 114, 1-(2-Bromophenyl)ethyl N-{4-[(6,7-dimethoxy-4-quinolyl)oxy]-2,5-dimethylphenyl}carbamate] | 65 | – | 602 | – | –
COc1cc2nccc(Oc3ccc(NC(=S)NC(=O)c4cc(C)cc(C)c4)cc3Cl)c2cc1OC [Example 1019, N-{3-Chloro-4-[(6,7-dimethoxy-4-quinolyl)oxy]phenyl}-N′-(3,5-dimethylbenzoyl)thiourea] | – | 22 | – | – | IC50 ([2]; h-SCF stimulation): 187 nM
COc1ccccc1COC(=O)Nc1ccc(Oc2ncnc3cc(OC)c(OC)cc23)cc1OC [Example 500, 2-Methoxybenzyl N-{4-[(6,7-dimethoxy-4-quinazolinyl)oxy]-2-methoxyphenyl}carbamate] | – | 14 | – | 199 | –
CCCCC(=O)NC(=S)Nc1ccc(Oc2ncnc3cc(OC)c(OC)cc23)cc1 [Example 720, N-{4-[(6,7-Dimethoxy-4-quinazolinyl)oxy]phenyl}-N′-pentanoylthiourea] | – | 42 | – | 30 | –
COc1cc2nccc(Oc3ccc(NC(=S)NC4CCN(Cc5ccccc5)CC4)c(C)c3C)c2cc1OC [Example 513, N-{4-[(6,7-Dimethoxy-4-quinolyl)oxy]-2,3-dimethylphenyl}-N′-[4-(N-benzyl)piperidinyl]thiourea] | – | > 100 | – | 720 | PDGF (E) inhibition (%) at 100 nM ([1]; figure within parentheses in >100( ), at 100 nM): 28%
CCN(CC)CCNC(=S)Nc1ccc(Oc2ccnc3cc(OC)c(OC)cc23)c(C)c1C [Example 511, N-{4-[(6,7-Dimethoxy-4-quinolyl)oxy]-2,3-dimethylphenyl}-N′-(2-diethylaminoethyl)thiourea] | – | 19 | – | 663 | –
COc1cc2nccc(Oc3cc(C)c(NC(=O)OCc4ccc5ccccc5c4)cc3C)c2cc1OC [Example 246, 2-Naphthylmethyl N-{4-[(6,7-dimethoxy-4-quinolyl)oxy]-2,5-dimethylphenyl}carbamate] | 58 | – | 243 | – | –
COc1cc2nccc(Oc3ccc(NC(=S)NC(=O)C4C(C)(C)C4(C)C)cc3)c2cc1OC [Example 759] | – | 26 | – | 323 | –
COc1cc2nccc(Oc3ccc(NC(=O)OCCC4CCCCC4)c(C)c3C)c2cc1OC [Example 355, 2-Cyclohexylethyl N-{4-[(6,7-dimethoxy-4-quinolyl)oxy]-2,3-dimethylphenyl}carbamate] | 24 | – | 252 | – | –
COc1cc2ncnc(Oc3ccc(NC(=O)OC(C)c4cccc(Br)c4)c(Cl)c3)c2cc1OC (stereo not shown) [Example 121, 1-(3-Bromophenyl)ethyl N-{2-chloro-4-[(6,7-dimethoxy-4-quinazolinyl)oxy]phenyl}carbamate] | 48 | – | – | – | inhibition at 1 µM ([2]; figure in parentheses in −( )): 17%
CCCCOC(=O)Nc1ccc(Oc2ncnc3cc(OC)c(OC)cc23)cc1 [Example 344, Butyl N-{4-[(6,7-dimethoxy-4-quinazolinyl)oxy]phenyl}carbamate] | < 10 | – | < 30 | – | –
COc1ccc(C(C)OC(=O)Nc2ccc(Oc3ncnc4cc(OC)c(OC)cc34)cc2Cl)cc1 (stereo not shown) [Example 36, 1-(4-Methoxyphenyl)ethyl N-{2-chloro-4-[(6,7-dimethoxy-4-quinazolinyl)oxy]phenyl}carbamate] | > 100 | – | – | – | inhibition at 0.1 µM ([1]; at 100 nM): 34%; inhibition at 1 µM ([2]; figure in parentheses in −( )): 19%
COc1cc2ncnc(Oc3ccc(NC(=O)NCCN4CCCCC4)c(Cl)c3)c2cc1OC [Example 677, N-{2-Chloro-4-[(6,7-dimethoxy-4-quinazolinyl)oxy]phenyl}-N′-(2-piperidinoethyl)urea] | – | 47 | – | 730 | –
COc1cc2ncnc(Oc3ccc(NC(=O)OCc4ccc(C(C)(C)C)cc4)cc3)c2cc1OC [Example 60, 4-(Tert-butyl)benzyl N-{4-[(6,7-dimethoxy-4-quinazolinyl)oxy]phenyl}carbamate] | < 10 | – | 261 | – | –
COc1cc2nccc(Oc3ccc(NC(=O)OC(C)C)c(C)c3C)c2cc1OC [Example 325, Isopropyl N-{4-[(6,7-dimethoxy-4-quinolyl)oxy]-2,3-dimethylphenyl}carbamate] | < 10 | – | 46 | – | –
COc1cc2ncnc(Oc3ccc(NC(=O)OCc4ccc(F)cc4)c(Cl)c3)c2cc1OC [Example 12, 4-Fuorobenzyl N-{2-chloro-4-[(6,7-dimethoxy-4-quinazolinyl)oxy]phenyl}carbamate] | 11 | – | 389 | – | –
COc1cc2ncnc(Oc3ccc(NC(=O)OC(C)c4cccc(OC(F)(F)F)c4)cc3)c2cc1OC (stereo not shown) [Example 183, 1-[3-(Trifluoromethoxy)phenyl]ethyl N-{4-[(6,7-dimethoxy-4-quinazolinyl)oxy]phenyl}carbamate] | 35 | – | 706 | – | –
COc1cc2ncnc(Oc3ccc(NC(=O)OCc4ccc(C)cc4)c(Cl)c3)c2cc1OC [Example 2, 4-Methylbenzyl N-{2-chloro-4-[(6,7-dimethoxy-4-quinazolinyl)oxy]phenyl}carbamate] | 17 | – | 422 | – | –
COc1cc2nccc(Oc3ccc(NC(=O)OC(C)c4cccc(Br)c4)c(C)c3C)c2cc1OC (stereo not shown) [Example 118, 1-(3-Bromophenyl)ethyl N-{4-[(6,7-dimethoxy-4-quinolyl)oxy]-2,3-dimethylphenyl}carbamate] | 33 | – | 746 | – | –
